Data on 25 molecules can be found in patent publication US12655174B2, “Adenosine A3 receptor agonists, preparation methods and uses thereof” (ZHEJIANG VIMGREEN PHARMACEUTICALS, LTD., priority 2020, dated 2026).

The series is described as follows: Pharmacokinetic test of compound in SD rat. Format: in vivo. The settings on record: SD rats, intragastric administration (IG), cassette dosing. The protocol:
Example 28: Pharmacokinetic Test of Compound in SD Rat
The animal species used in this experiment were SD rats. There were 3 animals per group. The rats were dosed in cassette format, i.e., multiple (1-6) different compounds were dosed simultaneously to the same group of the SD rats. The vehicle used for the drug was 5% DMSO+5% Solutl+90% ([…] methylcellulose M450), and the administration route was intragastric administration (IG).
On to `CNC(=O)[C@H]1O[C@@H](n2cnc3c(NCc4ccccc4)nc(-c4cncc([N+](=O)[O-])c4)nc32)[C@H](O)[C@@H]1O` [compound 152, (2S,3S,4R,5R)-5-(6-(benzylamino)-2-(5-nitropyridin-3-yl)-9H-purin-9-yl)-3,4-dihydroxyl-N-methyltetrahydrofuran-2-carboxamide], for which the “AUC_D” value amounted to 1352.37 kg·ng·h/mL/mg.

With `CNC(=O)[C@H]1O[C@@H](n2cnc3c(NCc4ccccc4)nc(-c4cncc(F)c4)nc32)[C@H](O)[C@@H]1O` [compound 153, (2S,3S,4R,5R)-5-(6-(benzylamino)-2-(5-fluoropyridin-3-yl)-9H-purin-9-yl)-3,4-dihydroxyl-N-methyltetrahydrofuran-2-carboxamide], the “AUC_D” value was 829.00 kg·ng·h/mL/mg.

On to `CCOc1cncc(-c2nc(NCc3ccccc3)c3ncn([C@@H]4O[C@H](C(=O)NC)[C@@H](O)[C@H]4O)c3n2)c1` [compound 158, (2S,3S,4R,5R)-5-(6-(benzylamino)-2-(5-ethoxypyridin-3-yl)-9H-purin-9-yl)-3,4-dihydroxyl-N-methyltetrahydrofuran-2-carboxamide], for which the “AUC_D” value was 602.00 kg·ng·h/mL/mg.

As for `[2H]C([2H])([2H])NC(=O)[C@H]1O[C@@H](n2cnc3c(NCc4cccc(C)c4)nc(-c4cncc(F)c4)nc32)[C@H](O)[C@@H]1O` [compound 162, (2S,3S,4R,5R)-5-(2-(5-fluoropyridin-3-yl)-6-((3-methylbenzyl)amino)-9H-purin-9-yl)-3,4-dihydroxyl-N-(methyl-d3)-tetrahydrofuran-2-carboxamide], the “AUC_D” value is 1156.15 kg·ng·h/mL/mg.

For `[2H]C([2H])([2H])NC(=O)[C@H]1O[C@@H](n2cnc3c(NCc4cccc(C)c4)nc(-c4cncc(Cl)c4)nc32)[C@H](O)[C@@H]1O` [compound 164, (2S,3S,4R,5R)-5-(6-(m-methylphenylmethylamino)-2-(5-chloropyridin-3-yl)-9H-purin-9-yl)-3,4-dihydroxyl-N-(methyl-d3)-tetrahydrofuran-2-formamide], the “AUC_D” value was 845.57 kg·ng·h/mL/mg.

Consider `[2H]C([2H])([2H])NC(=O)[C@H]1O[C@@H](n2cnc3c(NCc4ccc(C(F)(F)F)cc4)nc(-c4cncc(Cl)c4)nc32)[C@H](O)[C@@H]1O` [compound 165, (2S,3S,4R,5R)-5-(6-(4-(trifluoromethyl)benzylamino)-2-(5-chloropyridin-3-yl)-9H-purin-9-yl)-3,4-dihydroxyl-N-(methyl-d3)-tetrahydrofuran-2-formamide], for which the “AUC_D” value came to 564.70 kg·ng·h/mL/mg.

As to `[2H]C([2H])([2H])NC(=O)[C@H]1O[C@@H](n2cnc3c(NCc4ccc(Cl)cc4)nc(-c4cncc(Cl)c4)nc32)[C@H](O)[C@@H]1O` [compound 168, (2S,3S,4R,5R)-5-(6-(4-chlorobenzylamino)-2-(5-chloropyridin-3-yl)-9H-purin-9-yl)-3,4-dihydroxyl-N-(methyl-d3)-tetrahydrofuran-2-formamide], the “AUC_D” value was 1551.15 kg·ng·h/mL/mg.

For the molecule `CNC(=O)[C@H]1O[C@@H](n2cnc3c(NCc4cccc(C(F)(F)F)c4)nc(-c4cncc(F)c4)nc32)[C@H](O)[C@@H]1O` [compound 180, (2S,3S,4R,5R)-5-(6-(3-(trifluoromethyl)benzylamino)-2-(5-fluoropyridin-3-yl)-9H-purin-9-yl)-3,4-dihydroxyl-N-methyl-tetrahydrofuran-2-formamide], the “AUC_D” value worked out at 81.74 kg·ng·h/mL/mg.

`CNC(=O)[C@H]1O[C@@H](n2cnc3c(NCc4cccc(C(F)(F)F)c4)nc(-c4cncc(OC)c4)nc32)[C@H](O)[C@@H]1O` [compound 181, (2S,3S,4R,5R)-5-(6-(3-(trifluoromethyl)benzylamino)-2-(5-methoxypyridin-3-yl)-9/-purin-9-yl)-3,4-dihydroxyl-N-methyl-tetrahydrofuran-2-formamide]: the “AUC_D” value is 72.67 kg·ng·h/mL/mg.

In the case of `[2H]C([2H])([2H])NC(=O)[C@H]1O[C@@H](n2cnc3c(NCC(F)(F)F)nc(-c4cncc(Cl)c4)nc32)[C@H](O)[C@@H]1O` [compound 202], the “AUC_D” value turned out to be 138.00 kg·ng·h/mL/mg.

As for `CNC(=O)[C@H]1O[C@@H](n2cnc3c(NCc4cccc(Cl)c4)nc(-c4cncc(Cl)c4)nc32)[C@H](O)[C@@H]1O` [compound 209, (2S,3S,4R,5R)-5-(6-((3-chlorobenzyl))amino-2-(5-chloropyridin-3-yl)-9H-purin-9-yl)-3,4-dihydroxyl-N-methyltetrahydrofuran-2-carboxamide], the “AUC_D” value came out at 1347.60 kg·ng·h/mL/mg.

`CNC(=O)[C@H]1O[C@@H](n2cnc3c(NCc4cccc(F)c4)nc(-c4cncc(Cl)c4)nc32)[C@H](O)[C@@H]1O` [compound 210, (2S,3S,4R,5R)-5-(2-(5-chloropyridin-3-yl)-6-((3-fluorobenzyl))amino-9H-purin-9-yl)-3,4-dihydroxyl-N-methyltetrahydrofuran-2-carboxamide]: the “AUC_D” value came to 580.90 kg·ng·h/mL/mg.

For the molecule `[2H]C([2H])([2H])NC(=O)[C@H]1O[C@@H](n2cnc3c(NCc4cc(Cl)ccn4)nc(-c4cncc(Cl)c4)nc32)[C@H](O)[C@@H]1O` [compound 214], the “AUC_D” value came out at 765.47 kg·ng·h/mL/mg.

Regarding `[2H]C([2H])([2H])NC(=O)[C@H]1O[C@@H](n2cnc3c(NCc4cc(C)ccn4)nc(-c4cncc(Cl)c4)nc32)[C@H](O)[C@@H]1O` [compound 215], the “AUC_D” value is 785.90 kg·ng·h/mL/mg.

Regarding `[2H]C([2H])([2H])NC(=O)[C@H]1O[C@@H](n2cnc3c(NCc4cccc(C#N)c4)nc(-c4cncc(Cl)c4)nc32)[C@H](O)[C@@H]1O` [compound 221, (2S,3S,4R,5R)-5-(2-(5-chloropyridin-3-yl)-6-((3-cyanobenzyl)amino)-9H-purin-9-yl)-3,4-dihydroxyl-N-(methyl-d3)-tetrahydrofuran-2-carboxamide], the “AUC_D” value came out at 278.77 kg·ng·h/mL/mg.

On to `[2H]C([2H])([2H])NC(=O)[C@H]1O[C@@H](n2cnc3c(NCc4cc(C)ccc4F)nc(-c4cncc(Cl)c4)nc32)[C@H](O)[C@@H]1O` [compound 225, (2S,3S,4R,5R)-5-(2-(5-chloropyridin-3-yl)-6-((2-fluoro-5-methylbenzyl)amino)-9H-purin-9-yl)-3,4-dihydroxyl-N-(methyl-d3)-tetrahydrofuran-2-carboxamide], for which the “AUC_D” value worked out at 11356.86 kg·ng·h/mL/mg.

For `[2H]C([2H])([2H])NC(=O)[C@H]1O[C@@H](n2cnc3c(NCc4cccnc4)nc(-c4cncc(Cl)c4)nc32)[C@H](O)[C@@H]1O` [compound 235, (2S,3S,4R,5R)-5-(2-(5-chloropyridin-3-yl)-6-(pyridin-3-ylmethylamino)-9H-purin-9-yl)-3,4-dihydroxyl-N-(methyl-d3)-tetrahydrofuran-2-carboxamide], the “AUC_D” value is 1456.00 kg·ng·h/mL/mg.

With `[2H]C([2H])([2H])NC(=O)[C@H]1O[C@@H](n2cnc3c(NCc4cc(Cl)cc(Cl)c4)nc(-c4cncc(Cl)c4)nc32)[C@H](O)[C@@H]1O` [compound 240, (2S,3S,4R,5R)-5-(2-(5-chloropyridin-3-yl)-6-(3,5-dichlorobenzylamino)-9H-purin-9-yl)-3,4-dihydroxyl-N-(methyl-d3)-tetrahydrofuran-2-carboxamide], the “AUC_D” value came to 1024.58 kg·ng·h/mL/mg.

On to `[2H]C([2H])([2H])NC(=O)[C@H]1O[C@@H](n2cnc3c(NCc4cc(F)cc(Cl)c4)nc(-c4cncc(Cl)c4)nc32)[C@H](O)[C@@H]1O` [compound 241, (2S,3S,4R,5R)-5-(6-(3-chloro-5-fluorobenzylamino)-2-(5-chloropyridin-3-yl)-9H-purin-9-yl)-3,4-dihydroxyl-N-(methyl-d3)-tetrahydrofuran-2-carboxamide], for which the “AUC_D” value was 440.67 kg·ng·h/mL/mg.

For the molecule `CCNC(=O)[C@H]1O[C@@H](n2cnc3c(NCc4ccccc4)nc(-c4cncc(Cl)c4)nc32)[C@H](O)[C@@H]1O` [compound 242, (2S,3S,4R,5R)-5-(6-(benzylamino)-2-(5-chloropyridin-3-yl)-9H-purin-9-yl)-N-ethyl-3,4-dihydroxyltetrahydrofuran-2-carboxamide], the “AUC_D” value worked out at 811.33 kg·ng·h/mL/mg.

In the case of `[2H]C([2H])([2H])NC(=O)[C@H]1O[C@@H](n2cnc3c(NCc4cccc(Br)c4)nc(-c4cncc(Cl)c4)nc32)[C@H](O)[C@@H]1O` [compound 248, (2S,3S,4R,5R)-5-(6-((3-bromobenzyl)amino)-2-(5-chloropyridin-3-yl)-9H-purin-9-yl)-3,4-dihydroxyl-N-(methyl-d3)tetrahydrofuran-2-carboxamide], the “AUC_D” value is 3298.00 kg·ng·h/mL/mg.

As to `[2H]C([2H])([2H])NC(=O)[C@H]1O[C@@H](n2cnc3c(NCc4cccc(I)c4)nc(-c4cncc(Cl)c4)nc32)[C@H](O)[C@@H]1O` [compound 250, (2S,3S,4R,5R)-5-(2-(5-chloropyridin-3-yl)-6-((3-iodobenzyl)amino)-9H-purin-9-yl)-3,4-dihydroxyl-N-(methyl-d3)tetrahydrofuran-2-carboxamide], the “AUC_D” value was determined as 2137.00 kg·ng·h/mL/mg.

On to `[2H]C([2H])([2H])NC(=O)[C@H]1O[C@@H](n2cnc3c(N[C@H](C)c4ccccc4)nc(-c4cncc(Cl)c4)nc32)[C@H](O)[C@@H]1O` [compound 251], for which the “AUC_D” value was 610.00 kg·ng·h/mL/mg.

For the molecule `[2H]C([2H])([2H])NC(=O)[C@H]1O[C@@H](n2cnc3c(N[C@@H](C)c4ccccc4)nc(-c4cncc(Cl)c4)nc32)[C@H](O)[C@@H]1O` [compound 252], the “AUC_D” value came out at 532.00 kg·ng·h/mL/mg.

Take `[2H]C([2H])([2H])NC(=O)[C@H]1O[C@@H](n2cnc3c(NCc4cscn4)nc(-c4cncc(Cl)c4)nc32)[C@H](O)[C@@H]1O` [compound 253, (2S,3S,4R,5R)-5-(2-(5-chloropyridin-3-yl)-6-((thiazol-4-ylmethyl)amino)-9H-purin-9-yl)-3,4-dihydroxyl-N-(methyl-d3)tetrahydrofuran-2-carboxamide]: the “AUC_D” value worked out at 299.00 kg·ng·h/mL/mg.
